Experimental data reported in ChEMBL document CHEMBL3301361, “Experimental in vitro DMPK and physicochemical data on a set of publicly disclosed compounds”.
≈ marks a conversion by molar mass, not a printed value.

Key:
physchem [1] = settings: octan-1-ol/water
in vitro = settings: SD, HW or BN, rat, plasma
physchem [2] = settings: pH 7.4 buffer

| Compound | fraction unbound at 5 h (in vitro) | further results |
| --- | --- | --- |
| O=C(c1cc(Cc2n[nH]c(=O)c3ccccc23)ccc1F)N1CCCNCC1 | 0.597 | logD (physchem [1]; pH 7.4, LogD7.4): 0.1 |
| O=c1[nH]c2c(O)ccc([C@@H](O)CNCCCOCCOCCc3ccccc3)c2s1 | 0.465 | logD (physchem [1]; pH 7.4, LogD7.4): 1.09 |
| Cc1nccnc1-c1ccc(CC(=O)N[C@H](C)c2ccc(OCC(F)(F)F)cn2)cc1 | 0.17 |  |
| CC(=O)N1CCN(c2nc(N[C@H](C)c3cnc4ccccc4c3)c3c(n2)C(=O)N(C(C)C)C3)CC1 | 0.0119 |  |
| N=C(N)c1ccc2nc(-c3cccc(-c4ccccc4)c3O)[nH]c2c1 | 0.0139 |  |
| Cc1ncc(-c2cccc3c2C[C@H](NC(=O)c2ccc(OCC(F)(F)F)nc2)CO3)cn1 | 0.0768 |  |
| Cc1c(-c2cc3ccccc3o2)oc(=O)c(C)c1O | 0.0026 |  |
| C=CCN(C)CCCCCCOc1ccc(C(=O)c2ccc(Br)cc2)c(F)c1 | 0.0006 |  |
| CNC(=O)c1ccc(Oc2ccc3c(c2)CCN(C2CCC2)CC3)nc1 [GSK189254] | 0.523 | logD (physchem [1]; pH 7.4, LogD7.4): 1.45 |
| Cc1ccc(-c2nnc(Nc3ccc(C(=O)N(C)C)cc3)c3ccccc23)cc1S(=O)(=O)N(C)C | 0.0209 |  |
| CCNC(=O)Nc1sc2ccccc2c1C(=O)N1CCC(N2CCCC3(CCN(CC)C3=O)C2)CC1 (stereo not drawn) | 0.17 |  |
| O=C(NCC1CCC1)c1nc(OCCOCCO)ccc1NC(=O)c1ccnc2ccccc12 | 0.03 |  |
| CN(C)CCOC1CN(c2cc(C(=O)NC[C@H]3CC[C@H](CNC(=O)OC(C)(C)C)CC3)c3ccccc3n2)C1 | 0.129 |  |
| COc1cc(-n2cnc3cc(-c4ccc(Cl)cc4)sc3c2=O)ccc1OCCN1CCCC1 | 0.0099 | logD (physchem [1]; pH 7.4, LogD7.4): 2.74 |
| COc1cc2c(cc1OC)CN(CCc1ccc(NC(=O)c3cccc4c(=O)c5cccc(OC)c5[nH]c34)cc1)CC2 | 0.0179 |  |
| O=C(NCCc1ccc(Cl)cc1)c1cccnc1 | 0.0854 |  |
| O=C(Nc1ccccc1)Nc1nc(-c2ccccc2)cs1 | 0.0005 |  |
| CN(C(=O)Cc1ccc(S(C)(=O)=O)cc1)C1CCN(Cc2ccc(C(F)(F)F)cc2)CC1 | 0.16 | solubility thermodynamic (physchem [2]): 363 µM (≈ 170 µg/mL) |
| O=S(=O)(Nc1nncs1)c1cc(Cl)c(Oc2ccc(C(F)(F)F)cc2-c2ccnnc2)cc1F [PF-05186462] | 0.02 | logD (physchem [1]; pH 7.4, LogD7.4): 1.15 |
| Nc1nc2c(c(N3CC[C@@H](N)C3)n1)CCCc1ccccc1-2 | 0.437 |  |
| CN(C)CCC1CCN(c2cc(C(=O)NC[C@H]3CC[C@H](COC(=O)NC(C)(C)C)CC3)c3ccccc3n2)CC1 | 0.0328 |  |

| Compound | fraction unbound at 5 h (in vitro) | further results |
| --- | --- | --- |
| C[C@@](O)(C(=O)Nc1ccc(S(C)(=O)=O)cc1Cl)C(F)(F)F | 0.16 | logD (physchem [1]; pH 7.4, LogD7.4): 2.08 |
| CC(C)C[C@H](CN)CC(=O)O [PREGABALIN] | 0.5 |  |
| Cc1nc2ccc(NS(=O)(=O)c3ccc(C)c(C)c3)cc2s1 | 0.0024 |  |
| C[C@H](Nc1nc(Nc2cc(C3CC3)[nH]n2)c(F)cc1C#N)c1ccc(F)cc1 | 0.002 |  |
| CC(C)(C)OC(=O)NC[C@H]1CC[C@H](CNC(=O)c2cc(-c3cccc(CN)c3)nc3ccccc23)CC1 | 0.0171 |  |
| CC(CN1c2ccccc2Sc2ccccc21)N(C)C (stereo not drawn) [PROMETHAZINE] | 0.0705 | logD (physchem [1]; pH 7.4, LogD7.4): 2.67 |
| CN(Cc1ccc(-c2ccccc2S(N)(=O)=O)cc1)C(=O)[C@@H]1CCC[C@H]1C(=O)NCc1ccc(OC(F)(F)F)cc1 | 0.003 |  |
| Cc1cc(-n2cnc3ccc(N[C@@H](C)c4ncc(F)cn4)nc32)n[nH]1 | 0.483 |  |
| CC(=O)N1CCN(c2nc(NCc3ccc(OC(F)(F)F)cc3)c3c(n2)C(=O)N(C(C)C)C3)CC1 | 0.151 |  |
| O=C(COc1cccc(Cl)c1)NC1CN(Cc2ccn(-c3ccc(C(F)(F)F)cc3)c2)C1 | 0.0043 |  |
| c1nc(Cc2ccsc2)c[nH]1 | 0.371 |  |
| O=[N+]([O-])c1c(Nc2ccc(-n3cncn3)cc2)ncnc1N1CCC(Sc2ccccn2)CC1 | 0.0029 |  |
| CC(C)(C)OC(=O)NC[C@H]1CC[C@H](CNC(=O)c2ccnc(-c3ccccc3)c2)CC1 | 0.0095 |  |
| CC(C)C(NC(=O)c1cc(Cl)ccc1C(F)(F)F)C(=O)c1ccc([N+](=O)[O-])cc1 (stereo not drawn) | 0.024 |  |
| O=C(c1ccc(-c2ccc(Cl)cc2)o1)N(Cc1ccccn1)c1ccc(N2CCNCC2)cc1 | 0.0219 | logD (physchem [1]; pH 7.4, LogD7.4): 3 |
| CCC(C)(C)C(=O)O[C@H]1C[C@@H](C)C=C2C=C[C@H](C)[C@H](CC[C@@H](O)C[C@@H](O)CC(=O)O)[C@H]21 [TENIVASTATIN] | 0.024 | logD (physchem [1]; pH 7.4, LogD7.4): 1.55 |
| CC(C)NCC(O)COc1cccc2[nH]ccc12 (stereo not drawn) [PINDOLOL] | 0.586 | logD (physchem [1]; pH 7.4): -0.12 |
| O=C1Nc2nc(-c3c(O)cccc3OCC3CC3)cc([C@@H]3CCCNC3)c2CO1 | 0.124 |  |
| COc1ccccc1OCC(O)CN1CCN(CC(=O)Nc2c(C)cccc2C)CC1 (stereo not drawn) [RANOLAZINE] | 0.465 |  |
| Cc1ccccc1Nc1nc(N)nc(C)c1Br | 0.0752 |  |
| Fc1ccc(-c2cc(C(F)(F)F)nc(-n3cc(Cl)cn3)n2)cc1 | 0.0048 |  |

| Compound | fraction unbound at 5 h (in vitro) | further results |
| --- | --- | --- |
| C[S+]([O-])Cc1ccc(C(=O)Nc2nccnc2C(=O)NCC2CCC2)c2ccccc12 (stereo not drawn) | 0.0988 |  |
| O=C(NCc1ccc(OC(F)(F)F)cc1)C1c2ccccc2C(=O)N1CCc1ncccn1 (stereo not drawn) | 0.129 |  |
| NCCCCN(Cc1nc2ccccc2[nH]1)C1CCCc2cccnc21 (stereo not drawn) | 0.371 | logD (physchem [1]; pH 7.4, LogD7.4): 0.83 |
| COc1ccc(NC(=O)c2ccnc3ccccc23)c(C(=O)NCC2CCC2)n1 | 0.0009 |  |
| CN1CCC(N2CCN(C(=O)[C@H](NC(=O)c3ccc4cc[nH]c4c3)c3ccccc3)CC2)CC1 [LY-517717] | 0.54 |  |
| O=C(Cc1ccc(F)c(C(F)(F)F)c1)Nc1cccc2c(=O)n([C@@H]3CNC[C@H]3O)ccc12 | 0.0948 | logD (physchem [1]; pH 7.4, LogD7.4): 1.33 |
| COc1ccc(-c2nc(-c3ccccn3)no2)cc1 | 0.0544 |  |
| CC(C)(C)OC(=O)NC[C@H]1CC[C@H](CNC(=O)c2cc(-c3ccc(CN)cc3)nc3ccccc23)CC1 | 0.0139 |  |
| C[C@@H](Oc1ccccc1-c1cccc([N+](=O)[O-])c1)C1=NCCN1 | 0.403 |  |
| Nc1nc2ccc(C(=O)c3ccccc3)cc2[nH]1 | 0.0736 | logD (physchem [1]; pH 7.4, LogD7.4): 2.29 |
| O=C(CC1CCCCCC1)Nc1cccc2c(=O)n([C@H]3CCNC3)ccc12 | 0.232 | logD (physchem [1]; pH 7.4, LogD7.4): 1.15 |
| C[C@@H](O[C@H]1OCCN(Cc2n[nH]c(=O)[nH]2)[C@H]1c1ccc(F)cc1)c1cc(C(F)(F)F)cc(C(F)(F)F)c1 [APREPITANT] | 0.0023 |  |
| CC(C(=O)O[C@@H]1CC[N+](C)(C)C1)(c1ccccc1)C1CCCC1 (stereo partly drawn) | 0.299 |  |
| Cc1cccc2cc(CN(Cc3ccco3)C(=O)Nc3cccc(C#N)c3)c(Cl)nc12 | 0.0009 |  |
| CC(C)(C)OC(=O)NC[C@H]1CC[C@H](CNC(=O)c2cc(-c3ccncc3)nc3ccccc23)CC1 | 0.02 |  |
| COCCNCc1cccc(CCNC[C@H](O)c2ccc(O)c3[nH]c(=O)sc23)c1 | 0.197 | logD (physchem [1]; pH 7.4, LogD7.4): 0.01 |
| O=[N+]([O-])c1ccc(-c2nc(-c3ccccc3)c(-c3ccccc3)[nH]2)cc1 | 0.0006 |  |
| O=C(Nc1cccc(Cl)c1)Nc1nnc(-c2ccncc2)s1 | 0.0046 |  |
| O=C(O)Cc1cn(-c2ccccc2)nc1-c1ccc(Cl)cc1 [LONAZOLAC] | 0.0018 |  |
| OCCNC(=S)NCc1cccc(Cl)c1F | 0.16 |  |
| CC(=O)N[C@@H](Cc1ccccc1)C(=O)N[C@H]1CCCNC(=O)[C@H](CCCNC(=N)N)NC(=O)[C@H](Cc2c[nH]c3ccccc23)NC(=O)[C@@H](CC2CCCCC2)NC(=O)[C@@H]2CCCN2C1=O | 0.163 |  |

| Compound | fraction unbound at 5 h (in vitro) | further results |
| --- | --- | --- |
| COc1cc(C(C)C)c(Oc2cnc(N)nc2N)cc1I | 0.0383 |  |
| N=C(N)c1ccc2[nH]c(-c3n[nH]c(-c4ccccc4)c3O)nc2c1 | 0.119 |  |
| CN1CCC[C@@H]1Cc1c[nH]c2ccc(Nc3ncccc3[N+](=O)[O-])cc12 | 0.387 |  |
| CC[C@H](NC(=O)c1c(O)c(-c2ccccc2)nc2ccccc12)c1ccccc1 [TALNETANT] | 0.0005 | logD (physchem [1]; pH 7.4, LogD7.4): 3.91 |
| Cc1ccc(S(=O)(=O)N(C)c2ccc3sc(C)nc3c2)cc1 | 0.0067 |  |
| CC(=O)N1CCN(c2nc3c(c(N(C)Cc4cc5ccccc5cn4)n2)CN(C(C)C)C3=O)CC1 | 0.339 |  |
| CC1=C(CC(=O)NCc2ccc(C(=N)N)cc2)C(=O)N(NS(=O)(=O)c2c(C)cccc2Cl)CC1 | 0.54 |  |
| O=C(O)c1cc(O)cc(O)c1 [3,5-DIHYDROXYBENZOIC ACID] | 0.824 |  |
| Cc1ccc(OCC(O)C(C)NC(C)C)c2c1CCC2 (stereo not drawn) [ZENIDOLOL] | 0.216 |  |
| O=C(O)CCc1ccc(NCc2cccc(Oc3ccccc3)c2)cc1 [GW9508] | 0.0052 | logD (physchem [1]; pH 7.4, LogD7.4): 2.1 |
| C[C@@H]1c2c([nH]c3ccc(C(F)(F)F)cc23)C[C@@H]2CCN(CCN3CCOCC3)C[C@H]21 | 0.0313 | logD (physchem [1]; pH 7.4, LogD7.4): 2.87 |
| CC(C)(C)OC(=O)NC[C@H]1CC[C@H](CNC(=O)c2cc(N3CCC(CCN)CC3)nc3ccccc23)CC1 | 0.0321 |  |
| COc1nc(C)nc(Cl)c1N=C1NCCN1 [MOXONIDINE] | 0.886 |  |
| CCCC(=O)Nc1ccc(Cl)c(-c2nc3ncccc3o2)c1 | 0.0358 |  |
| Cc1nc(C(F)(F)F)ccc1C(=O)Nc1ccc(Cl)c(-c2nc3ccccc3[nH]2)c1 | 0.0948 |  |
| CCOc1ccc2oc(C(=O)NC(CCSC)c3nc4ccccc4[nH]3)c(C)c2c1 (stereo not drawn) | 0.009 |  |
| O=S(=O)(Nc1ncns1)c1cc(F)c(Oc2cc(F)c(Cl)cc2-c2cn[nH]c2)cc1F | 0.002 |  |
| O=C(CC12CC3CC(CC(C3)C1)C2)Nc1cccc2c(=O)n(C[C@H]3CCCN3)ccc12 | 0.151 |  |
| O=S(=O)(Nc1ncns1)c1cc(F)c(Oc2ccc(Cl)cc2-c2cn[nH]c2)cc1F | 0.001 |  |
| Cc1csc2c(N3CCN(C(=O)c4ccc(C(C)(C)C)cc4)CC3)ncnc12 | 0.0043 |  |
| NCCCCN(Cc1nc2ccccc2[nH]1)[C@H]1CCCc2cccnc21 [MAVORIXAFOR] | 0.244 |  |
